Assay results published in PMC5034536, “Molecular insights into substrate recognition and catalytic mechanism of the chaperone and FKBP peptidyl-prolyl isomerase SlyD” (BMC Biology, 2016).
Values joined by “and” are separate entries in the source; they are usually repeats but may differ in a detail not shown here. Identical values can stand only once.

Experiments:
[1] = molecular target: TtSlyDFL H119A (Thermus thermophilus, UniProt Q5SLE7, H119A); experiment: Tetrapeptide activity by NMR lineshape analysis
Description: (§3) NMR samples contained TtSlyD in 20 mM HEPES, 100 mM NaCl, pH 7.5, and 10 % (v/v) D2O. All experiments were performed at a static magnetic field strength of 14.1 T and a temperature of 25 °C. The spectra were processed with NMRpipe [57] and analyzed with NMRview [58], except one-dimensional spectra, which were processed and analyzed using VNMRJ (Agilent, Inc.). Lineshape analysis was performed using MATLAB.
(§4) For tetrapeptide activity studies, one-dimensional ^1H spectra of 500 μM suc-ALPF-pNA tetrapeptide containing 2 μM, 4 μM, or 6 μM of TtSlyD were recorded for the different mutants [59].

[2] = molecular target: TtSlyDFL Y13F (Thermus thermophilus, UniProt Q5SLE7, Y13F); experiment: Tetrapeptide activity by NMR lineshape analysis
Description: (§5) Although the kcat/KM and KD values refer to different substrates, this analysis should provide valuable insights into the relative impact of a given mutation on binding and turnover.
(§6) NMR samples contained TtSlyD in 20 mM HEPES, 100 mM NaCl, pH 7.5, and 10 % (v/v) D2O. All experiments were performed at a static magnetic field strength of 14.1 T and a temperature of 25 °C. […] Lineshape analysis was performed using MATLAB.
as §4

[3] = molecular target: TtSlyDFL Y63F (Thermus thermophilus, UniProt Q5SLE7, Y63F); experiment: Tetrapeptide activity by NMR lineshape analysis
Description: as §5, §6, §4

[4] = test system: human FKBP12; conditions: human FKBP12 with suc-ALPF-pNA as a substrate; ref U Weininger, unpublished data; cited from earlier work
[5] = test system: E. coli SlyD; conditions: estimated, E. coli SlyD at high salt concentration; cited from earlier work
[6] = test system: TtSlyDΔIF; experiment: Tetrapeptide cis/trans isomerization activity by NMR lineshape analysis; format: biochemical, Thermus thermophilus
Text: (§1) In order to accurately measure the catalytic activity of TtSlyDFL on peptidyl-prolyl cis/trans isomerization, we carried out Michaelis-Menten studies under equilibrium conditions using NMR lineshape analysis, which is capable of monitoring the rate of exchange between cis and trans conformations of the peptide substrate. Initially, we benchmarked the method against literature data using the standard suc-ALPF-pNA tetrapeptide (Fig. 7a). […] For the TtSlyDΔIF construct, we obtained kcat/KM = 0.85 ± 0.01 μM^−1s^−1, showing a minor influence of the IF domain.
(§2) Lineshape analysis was performed using MATLAB.

[7] = test system: TtSlyDFL; experiment: as above; format: biochemical, Thermus thermophilus
Text: as §1, §2

[8] = molecular target: TtSlyDFL Y63A (Thermus thermophilus, UniProt Q5SLE7, Y63A); experiment: Tetrapeptide activity by NMR lineshape analysis
Description: as §6, §4

[9] = molecular target: TtSlyDFL D23A (Thermus thermophilus, UniProt Q5SLE7, D23A); experiment: Tetrapeptide activity by NMR lineshape analysis
Description: as §5, §6, §4

[10] = molecular target: TtSlyDFL Y92A (Thermus thermophilus, UniProt Q5SLE7, Y92A); experiment: Tetrapeptide activity by NMR lineshape analysis
Description: as §6, §4

[11] = molecular target: TtSlyDFL A78G (Thermus thermophilus, UniProt Q5SLE7, A78G); experiment: Tetrapeptide activity by NMR lineshape analysis
Description: as §6, §4

[12] = molecular target: TtSlyDFL N35A (Thermus thermophilus, UniProt Q5SLE7, N35A); experiment: Tetrapeptide activity by NMR lineshape analysis
Description: as §5, §6, §4

[13] = molecular target: TtSlyDFL Q94A (Thermus thermophilus, UniProt Q5SLE7, Q94A); experiment: Tetrapeptide activity by NMR lineshape analysis
Description: as §6, §4

[14] = molecular target: TtSlyDFL M96A (Thermus thermophilus, UniProt Q5SLE7, M96A); experiment: Tetrapeptide activity by NMR lineshape analysis
Description: as §6, §4

[15] = molecular target: TtSlyDFL F128A (Thermus thermophilus, UniProt Q5SLE7, F128A); experiment: Tetrapeptide activity by NMR lineshape analysis
Description: as §3, §4

[16] = molecular target: TtSlyDFL I37G (Thermus thermophilus, UniProt Q5SLE7, I37G); experiment: Tetrapeptide activity by NMR lineshape analysis
Description: as §5, §6, §4

[17] = substrate 500 μM suc-ALPF-pNA, NMR lineshape analysis, 25 °C
[18] = suc-ALPF-pNA, relative to wild-type TtSlyDFL

Chain of TtSlyDFL H119A (Q5SLE7 entry or part of it H119A): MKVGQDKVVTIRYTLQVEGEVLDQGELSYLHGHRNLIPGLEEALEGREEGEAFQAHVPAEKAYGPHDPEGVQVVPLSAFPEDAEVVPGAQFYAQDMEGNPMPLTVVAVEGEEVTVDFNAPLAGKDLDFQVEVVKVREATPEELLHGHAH
Chain of TtSlyDFL A78G (Q5SLE7 entry or part of it A78G): as the sequence (Q5SLE7 entry or part of it H119A) above, with A78G, A119H counted along it
Chain of TtSlyDFL N35A (Q5SLE7 entry or part of it N35A): as the sequence (Q5SLE7 entry or part of it H119A) above, with N35A, A119H counted along it
Chain of TtSlyDFL F128A (Q5SLE7 entry or part of it F128A): as the sequence (Q5SLE7 entry or part of it H119A) above, with A119H, F128A counted along it
Chain of TtSlyDFL D23A (Q5SLE7 entry or part of it D23A): as the sequence (Q5SLE7 entry or part of it H119A) above, with D23A, A119H counted along it
Chain of TtSlyDFL Q94A (Q5SLE7 entry or part of it Q94A): as the sequence (Q5SLE7 entry or part of it H119A) above, with Q94A, A119H counted along it
Chain of TtSlyDFL M96A (Q5SLE7 entry or part of it M96A): as the sequence (Q5SLE7 entry or part of it H119A) above, with M96A, A119H counted along it
Chain of TtSlyDFL Y63F (Q5SLE7 entry or part of it Y63F): as the sequence (Q5SLE7 entry or part of it H119A) above, with Y63F, A119H counted along it
Chain of TtSlyDFL Y63A (Q5SLE7 entry or part of it Y63A): as the sequence (Q5SLE7 entry or part of it H119A) above, with Y63A, A119H counted along it
Chain of TtSlyDFL Y92A (Q5SLE7 entry or part of it Y92A): as the sequence (Q5SLE7 entry or part of it H119A) above, with Y92A, A119H counted along it
Chain of TtSlyDFL I37G (Q5SLE7 entry or part of it I37G): as the sequence (Q5SLE7 entry or part of it H119A) above, with I37G, A119H counted along it
Chain of TtSlyDFL Y13F (Q5SLE7 entry or part of it Y13F): as the sequence (Q5SLE7 entry or part of it H119A) above, with Y13F, A119H counted along it

Q: With “succinyl-Ala-Leu-Pro-Phe-4-nitroanilide [suc-ALPF-pNA]” as the substance, how does the “Activity (kcat/KM)” value [1, 17] read?
A: 1.23 ± 0.02 10^6 M/s

Q: And the Relative activity [1, 18]?
A: 84%

Q: What about the “Activity (kcat/KM)” value [2, 17] of the same substance?
A: 1.35 ± 0.17 10^6 M/s

Q: And the Relative activity [2, 18]?
A: 92%

Q: And the “Activity (kcat/KM)” value [3, 17]?
A: 1.12 ± 0.11 10^6 M/s

Q: And the Relative activity [3, 18]?
A: 76%

Q: And the kcat [4]?
A: above 10,000 s^−1

Q: And the Kd [5]?
A: ~44 µM

Q: What about the kcat/KM ([6]; 500 μM suc-ALPF-pNA, enzyme concentration varied, linear regression, 25 °C) of the same substance?
A: 0.85 ± 0.01 10^6 M^−1s^−1

Q: And the “Activity (kcat/KM)” value [6, 17]?
A: 0.85 ± 0.01 10^6 M^-1 s^-1

Q: And the kcat/KM ([6]; suc-ALPF-pNA as substrate, NMR lineshape analysis, 25 °C)?
A: 0.85 ± 0.01 µM⁻¹ s⁻¹

Q: And the Relative activity [6, 18]?
A: 58%

Q: And the kcat ([7]; TtSlyD, suc-ALPF-pNA tetrapeptide as substrate)?
A: > 10,000 s^−1

Q: What about the kcat/KM ([7]; TtSlyDFL, 500 μM suc-ALPF-pNA, enzyme concentration varied, linear regression, 25 °C) of the same substance?
A: 1.47 ± 0.05 10^6 M^−1s^−1 and 1.5 10^6 M^−1s^−1

Q: And the “Activity (kcat/KM)” value ([7]; wild-type TtSlyDFL, substrate 500 μM suc-ALPF-pNA, NMR lineshape analysis, 25 °C)?
A: 1.47 ± 0.05 10^6 M^-1 s^-1

Q: What about the kcat/KM ([7]; wild-type TtSlyDFL, suc-ALPF-pNA as substrate, NMR lineshape analysis, equilibrium conditions, 25 °C) of the same substance?
A: 1.47 ± 0.05 µM⁻¹ s⁻¹

Q: What about the Relative activity ([7]; wild-type TtSlyDFL, suc-ALPF-pNA, reference) of the same substance?
A: 100%

Q: What about the “Activity (kcat/KM)” value [8, 17] of the same substance?
A: 0.31 ± 0.19 10^6 M/s

Q: And the Relative activity [8, 18]?
A: 21%

Q: And the “Activity (kcat/KM)” value [9, 17]?
A: 1.15 ± 0.21 10^6 M/s

Q: What about the Relative activity [9, 18] of the same substance?
A: 78%

Q: What about the “Activity (kcat/KM)” value [10, 17] of the same substance?
A: 0.53 ± 0.12 10^6 M/s

Q: What about the Relative activity [10, 18] of the same substance?
A: 36%

Q: And the “Activity (kcat/KM)” value [11, 17]?
A: 0.76 ± 0.14 10^6 M/s

Q: What about the Relative activity [11, 18] of the same substance?
A: 52%

Q: And the “Activity (kcat/KM)” value [12, 17]?
A: 1.04 ± 0.28 10^6 M/s

Q: And the Relative activity [12, 18]?
A: 71%

Q: And the “Activity (kcat/KM)” value [13, 17]?
A: 1.44 ± 0.49 10^6 M/s

Q: And the Relative activity [13, 18]?
A: 98%

Q: What about the “Activity (kcat/KM)” value [14, 17] of the same substance?
A: 0.58 ± 0.15 10^6 M/s

Q: What about the Relative activity [14, 18] of the same substance?
A: 39%

Q: What about the “Activity (kcat/KM)” value [15, 17] of the same substance?
A: 0.52 ± 0.16 10^6 M/s

Q: And the Relative activity [15, 18]?
A: 35%

Q: And the “Activity (kcat/KM)” value [16, 17]?
A: 0.73 ± 0.12 10^6 M/s

Q: What about the Relative activity [16, 18] of the same substance?
A: 50%
